Measurements as given in paper PMC7736581, “Activation of the IRE1 RNase through remodeling of the kinase front pocket by ATP-competitive ligands” (Nature Communications, 2020).

Key:
Assay in all cases: biochemical
Set-up in all cases: Invitrogen kinase panel: Z'Lyte activity (ATP at Km) or LanthaScreen competitive ATP-site binding, percent inhibition
[1] = target: RAF1(Y340D,Y341D) (Homo sapiens, UniProt P04049, Y340D/Y341D)
[2] = target: T1, p70S6K (Homo sapiens, UniProt P23443)
T1 construct: gene RPS6KB1

[3] = target: T2, Tie2 (Homo sapiens, UniProt Q02763)
T2 construct: gene TEK

[4] = target: T3, TAK1-TAB1 (Homo sapiens, UniProt O43318)
T3 construct: gene MAP3K7
T3 sequence (O43318 1-606): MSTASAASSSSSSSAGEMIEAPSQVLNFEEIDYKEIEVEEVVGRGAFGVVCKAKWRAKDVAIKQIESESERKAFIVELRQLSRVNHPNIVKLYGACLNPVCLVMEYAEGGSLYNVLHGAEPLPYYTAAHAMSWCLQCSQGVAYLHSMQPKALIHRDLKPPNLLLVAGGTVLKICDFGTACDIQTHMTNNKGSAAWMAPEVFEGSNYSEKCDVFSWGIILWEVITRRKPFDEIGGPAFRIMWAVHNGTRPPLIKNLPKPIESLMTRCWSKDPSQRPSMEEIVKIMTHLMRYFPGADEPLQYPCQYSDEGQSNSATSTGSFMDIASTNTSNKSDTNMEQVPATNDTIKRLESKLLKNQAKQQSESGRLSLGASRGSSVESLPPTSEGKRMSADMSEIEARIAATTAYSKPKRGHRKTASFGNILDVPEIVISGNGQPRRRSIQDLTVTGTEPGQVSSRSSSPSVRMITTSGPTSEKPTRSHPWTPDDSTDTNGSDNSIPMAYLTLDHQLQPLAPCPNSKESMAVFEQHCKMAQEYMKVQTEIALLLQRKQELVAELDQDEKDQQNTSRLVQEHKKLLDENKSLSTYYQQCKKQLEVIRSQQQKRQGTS
T3 sequence (Q15750 1-504 partner): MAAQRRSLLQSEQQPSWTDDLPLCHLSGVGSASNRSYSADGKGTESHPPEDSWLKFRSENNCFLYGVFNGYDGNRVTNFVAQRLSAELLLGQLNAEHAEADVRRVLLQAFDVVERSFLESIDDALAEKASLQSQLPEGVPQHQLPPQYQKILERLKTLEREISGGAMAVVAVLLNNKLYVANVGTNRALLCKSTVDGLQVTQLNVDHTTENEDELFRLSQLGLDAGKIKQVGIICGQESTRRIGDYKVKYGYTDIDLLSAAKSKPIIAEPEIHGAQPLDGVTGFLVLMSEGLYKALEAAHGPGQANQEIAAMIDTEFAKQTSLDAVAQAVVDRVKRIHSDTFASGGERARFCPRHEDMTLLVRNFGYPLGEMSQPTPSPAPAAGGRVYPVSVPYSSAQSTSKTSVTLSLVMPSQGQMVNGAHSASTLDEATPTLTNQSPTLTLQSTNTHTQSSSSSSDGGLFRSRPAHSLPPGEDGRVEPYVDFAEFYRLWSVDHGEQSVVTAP

[5] = target: T4, Yes (Homo sapiens, UniProt P07947)
T4 construct: gene YES1

[6] = target: T5, NEK1 (Homo sapiens, UniProt Q96PY6)
T5 sequence (Q96PY6 1-1258): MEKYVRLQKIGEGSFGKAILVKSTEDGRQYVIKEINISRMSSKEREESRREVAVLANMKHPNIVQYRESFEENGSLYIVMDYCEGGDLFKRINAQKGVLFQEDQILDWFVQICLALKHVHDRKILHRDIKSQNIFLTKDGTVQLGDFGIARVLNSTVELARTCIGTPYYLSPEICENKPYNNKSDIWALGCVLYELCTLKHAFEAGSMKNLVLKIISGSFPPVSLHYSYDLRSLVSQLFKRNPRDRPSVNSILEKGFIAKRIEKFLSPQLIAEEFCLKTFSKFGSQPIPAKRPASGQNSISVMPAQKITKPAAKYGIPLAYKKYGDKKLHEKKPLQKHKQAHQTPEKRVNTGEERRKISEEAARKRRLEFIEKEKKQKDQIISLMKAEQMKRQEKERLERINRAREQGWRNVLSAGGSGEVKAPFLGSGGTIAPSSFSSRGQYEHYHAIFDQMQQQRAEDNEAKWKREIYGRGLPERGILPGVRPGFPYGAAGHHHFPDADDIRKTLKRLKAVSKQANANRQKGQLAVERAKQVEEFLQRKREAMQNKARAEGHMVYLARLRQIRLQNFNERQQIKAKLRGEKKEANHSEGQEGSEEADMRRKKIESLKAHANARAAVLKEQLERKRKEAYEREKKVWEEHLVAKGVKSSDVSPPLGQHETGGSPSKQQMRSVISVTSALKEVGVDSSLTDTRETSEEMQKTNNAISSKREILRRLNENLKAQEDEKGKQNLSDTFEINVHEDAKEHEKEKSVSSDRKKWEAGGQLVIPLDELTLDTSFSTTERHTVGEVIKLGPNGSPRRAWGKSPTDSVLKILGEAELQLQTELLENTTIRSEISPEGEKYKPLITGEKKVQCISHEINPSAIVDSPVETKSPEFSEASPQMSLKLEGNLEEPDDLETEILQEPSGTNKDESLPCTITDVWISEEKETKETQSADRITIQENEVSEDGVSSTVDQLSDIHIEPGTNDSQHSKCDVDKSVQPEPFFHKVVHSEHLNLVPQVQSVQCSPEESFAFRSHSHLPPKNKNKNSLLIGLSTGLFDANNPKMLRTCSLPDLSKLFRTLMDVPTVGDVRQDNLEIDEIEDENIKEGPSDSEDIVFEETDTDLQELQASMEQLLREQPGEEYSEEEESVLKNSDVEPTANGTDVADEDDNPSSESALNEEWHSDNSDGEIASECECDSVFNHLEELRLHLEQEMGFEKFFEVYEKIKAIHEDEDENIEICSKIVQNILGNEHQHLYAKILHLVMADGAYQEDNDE

[7] = target: T6, MEK1 (Homo sapiens, UniProt Q02750)
T6 construct: gene MAP2K1
T6 sequence (Q02750 whole entry): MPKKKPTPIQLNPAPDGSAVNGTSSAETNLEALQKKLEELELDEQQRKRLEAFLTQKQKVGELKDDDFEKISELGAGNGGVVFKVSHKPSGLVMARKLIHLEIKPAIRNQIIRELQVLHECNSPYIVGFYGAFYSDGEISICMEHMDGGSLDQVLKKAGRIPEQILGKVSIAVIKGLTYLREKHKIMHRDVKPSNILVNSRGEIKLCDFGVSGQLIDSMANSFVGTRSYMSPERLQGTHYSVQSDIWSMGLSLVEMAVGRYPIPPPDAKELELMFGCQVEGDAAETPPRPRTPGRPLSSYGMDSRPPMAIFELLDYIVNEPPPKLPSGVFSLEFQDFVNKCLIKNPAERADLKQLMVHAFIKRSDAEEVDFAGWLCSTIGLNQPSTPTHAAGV

T4 sequence (P07947 whole entry): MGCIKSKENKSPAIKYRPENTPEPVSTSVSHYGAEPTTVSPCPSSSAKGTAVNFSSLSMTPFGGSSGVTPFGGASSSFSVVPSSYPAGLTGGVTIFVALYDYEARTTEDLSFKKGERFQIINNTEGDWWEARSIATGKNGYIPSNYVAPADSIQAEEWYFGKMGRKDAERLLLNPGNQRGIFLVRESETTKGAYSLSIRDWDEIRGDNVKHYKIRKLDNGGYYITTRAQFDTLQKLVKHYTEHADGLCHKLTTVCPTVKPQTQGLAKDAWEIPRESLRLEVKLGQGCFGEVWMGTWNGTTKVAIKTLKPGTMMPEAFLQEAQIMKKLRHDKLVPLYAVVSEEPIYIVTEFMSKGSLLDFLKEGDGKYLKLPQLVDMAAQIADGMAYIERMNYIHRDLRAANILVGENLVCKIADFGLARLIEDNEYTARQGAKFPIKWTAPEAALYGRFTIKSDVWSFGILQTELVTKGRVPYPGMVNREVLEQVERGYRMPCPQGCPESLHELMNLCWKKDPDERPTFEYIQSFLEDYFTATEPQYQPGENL
RAF1(Y340D,Y341D), sequence (P04049 whole entry Y340D/Y341D): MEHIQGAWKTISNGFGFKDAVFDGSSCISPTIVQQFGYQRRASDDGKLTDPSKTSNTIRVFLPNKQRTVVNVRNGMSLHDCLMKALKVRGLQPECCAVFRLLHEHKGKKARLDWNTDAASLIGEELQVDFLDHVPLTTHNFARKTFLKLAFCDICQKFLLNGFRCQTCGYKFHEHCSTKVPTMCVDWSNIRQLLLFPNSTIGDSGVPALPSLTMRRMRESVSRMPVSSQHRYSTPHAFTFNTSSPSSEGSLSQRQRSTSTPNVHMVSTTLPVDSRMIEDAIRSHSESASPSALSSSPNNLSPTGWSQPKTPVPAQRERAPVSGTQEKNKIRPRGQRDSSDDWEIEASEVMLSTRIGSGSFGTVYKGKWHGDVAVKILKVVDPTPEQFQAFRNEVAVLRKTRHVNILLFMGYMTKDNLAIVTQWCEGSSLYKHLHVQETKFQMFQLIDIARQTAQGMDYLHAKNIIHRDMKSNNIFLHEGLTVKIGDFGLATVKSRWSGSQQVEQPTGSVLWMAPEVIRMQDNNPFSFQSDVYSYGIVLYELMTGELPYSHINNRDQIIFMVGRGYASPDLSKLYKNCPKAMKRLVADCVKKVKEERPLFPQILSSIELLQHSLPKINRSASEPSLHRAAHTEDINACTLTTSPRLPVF
T2 sequence (Q02763 whole entry): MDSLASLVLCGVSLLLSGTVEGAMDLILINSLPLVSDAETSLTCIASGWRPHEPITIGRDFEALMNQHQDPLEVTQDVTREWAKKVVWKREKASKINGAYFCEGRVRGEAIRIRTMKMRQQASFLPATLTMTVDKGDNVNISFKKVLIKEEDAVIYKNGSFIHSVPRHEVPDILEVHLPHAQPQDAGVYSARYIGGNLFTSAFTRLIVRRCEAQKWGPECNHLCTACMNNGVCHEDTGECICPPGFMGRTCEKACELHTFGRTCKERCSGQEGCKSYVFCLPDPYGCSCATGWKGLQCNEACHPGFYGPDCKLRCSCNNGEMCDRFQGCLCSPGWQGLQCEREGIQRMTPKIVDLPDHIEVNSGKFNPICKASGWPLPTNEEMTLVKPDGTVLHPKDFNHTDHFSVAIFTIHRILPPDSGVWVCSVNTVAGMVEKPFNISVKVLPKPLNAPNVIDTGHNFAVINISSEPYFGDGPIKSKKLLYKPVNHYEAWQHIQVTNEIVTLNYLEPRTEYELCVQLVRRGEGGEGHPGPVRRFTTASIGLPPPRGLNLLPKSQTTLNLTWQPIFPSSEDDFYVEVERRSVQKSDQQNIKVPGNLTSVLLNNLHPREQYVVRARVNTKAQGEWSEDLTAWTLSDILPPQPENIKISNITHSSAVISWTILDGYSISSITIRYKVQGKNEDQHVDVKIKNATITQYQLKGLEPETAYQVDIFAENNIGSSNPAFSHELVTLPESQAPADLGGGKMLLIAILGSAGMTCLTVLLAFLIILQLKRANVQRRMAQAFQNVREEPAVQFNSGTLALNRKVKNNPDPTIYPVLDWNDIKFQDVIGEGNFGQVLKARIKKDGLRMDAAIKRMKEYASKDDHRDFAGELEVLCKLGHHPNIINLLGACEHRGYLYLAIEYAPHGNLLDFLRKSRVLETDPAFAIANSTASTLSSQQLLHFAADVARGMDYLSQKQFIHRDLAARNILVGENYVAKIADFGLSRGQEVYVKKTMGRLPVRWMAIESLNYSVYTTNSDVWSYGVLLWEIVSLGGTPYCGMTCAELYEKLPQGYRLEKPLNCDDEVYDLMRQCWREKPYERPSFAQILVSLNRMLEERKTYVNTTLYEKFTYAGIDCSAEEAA
T1 sequence (P23443 whole entry): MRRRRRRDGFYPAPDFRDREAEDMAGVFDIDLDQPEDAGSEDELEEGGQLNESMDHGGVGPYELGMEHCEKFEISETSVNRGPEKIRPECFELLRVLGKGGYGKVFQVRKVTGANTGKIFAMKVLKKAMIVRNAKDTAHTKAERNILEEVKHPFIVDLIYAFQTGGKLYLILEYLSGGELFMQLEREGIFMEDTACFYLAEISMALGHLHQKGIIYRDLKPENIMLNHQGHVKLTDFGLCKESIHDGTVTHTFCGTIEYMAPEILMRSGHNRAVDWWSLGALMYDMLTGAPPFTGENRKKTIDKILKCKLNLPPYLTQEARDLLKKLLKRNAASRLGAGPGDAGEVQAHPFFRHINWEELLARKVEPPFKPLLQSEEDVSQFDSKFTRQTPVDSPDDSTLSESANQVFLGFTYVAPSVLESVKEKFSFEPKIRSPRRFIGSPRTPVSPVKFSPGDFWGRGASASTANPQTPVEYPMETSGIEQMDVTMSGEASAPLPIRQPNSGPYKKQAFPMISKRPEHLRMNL

inhibition at 1 µM [1] | inhibition at 1 µM [2] | inhibition at 1 µM [3] | inhibition at 1 µM [4] | inhibition at 1 µM [5] | inhibition at 1 µM [6] | inhibition at 1 µM [7] | SMILES
1% | -1% | 12.5% | -2.5% | 8% | 3% | 0.5% | CC#CC(=O)Nc1cccc2c(Oc3ncccc3-c3ccnc(N[C@H]4CCCNC4)n3)c(C)ccc12 [G-7658]
43.3% | 88.7% | 95.9% | 94.3% | 52.4% | 90.2% | 95.4% | O=c1cc(-c2n[nH]c3ncc(-c4c(F)cccc4F)cc23)nc(N2CCC(O)CC2)[nH]1 [G-9807]

SMILES | inhibition at 1 µM [1] | inhibition at 1 µM [2] | inhibition at 1 µM [3] | inhibition at 1 µM [4] | inhibition at 1 µM [5] | inhibition at 1 µM [6] | inhibition at 1 µM [7]
CCOC(=O)Nc1cccc2c(Oc3ncccc3-c3ccnc(N[C@H]4CCCNC4)n3)c(C)ccc12 [G-1749] | 24.5% | 2.5% | 26% | 23% | 7.5% | 0.5% | 2%
